Tests used:
Type in all cases: cell-based
MV-4-11 cells = test: MV-4-11 cell proliferation inhibition, CCK-8; settings: Homo sapiens, MV4-11, 96 h, MV-4-11, 4 days
Procedure: The complete medium required for MV-4-11 cells is IMDM (ATCC, Product number: 30-2005) basal medium containing 10% fetal bovine serum. MV-4-11 cells were seeded in a 96-well plate at a density of 7,500 cells/well, and different concentrations of the compound of the present invention and positive control samples Alisertib (source: Bide Pharmaceuticals), Palbociclib (source: Bide Pharmaceuticals), Ibrutinib (source Bide Pharmaceuticals) treated cells. The cells were incubated in a 37° C., 5% CO2 cell incubator for 4 days. Cell viability was detected using the CCK-8 kit (Beyotime, Product number: C0040) according to the manufacturer's instructions. According to the inhibition rate, GraphPad Prism software was used to calculate the IC50 value of each compound for 4 days, and the results are shown in Table 6-8.

K562 cells = test: K562 cell proliferation inhibition, CCK-8; settings: Homo sapiens, 96 h, K562, 4 days
Procedure: The complete medium required for K562 cells is IMDM (ATCC, Product number: 30-2005) basal medium containing 10% fetal bovine serum. K562 cells were seeded in a 96-well plate at a density of 7,500 cells/well, and different concentrations of the compound of the present invention and positive control samples Alisertib (source: Bide Pharmaceuticals) and dBET6 (source: Bide Pharmaceuticals) were prepared to treat the cells. The cells were incubated at a 37° C., 5% CO2 cell culture incubator for 4 days.
Cell viability was detected using the CCK-8 kit (Beyotime, Product number: C0040) according to the manufacturer's instructions. According to the inhibition rate, GraphPad Prism software was used to calculate the IC50 value of each compound for 4 days, and the results are shown in Table 11-12.

MOLM-13 cells = test: MOLM-13 cell proliferation inhibition, CCK-8; settings: Homo sapiens, 96 h, MOLM-13, 4 days
Procedure: The complete medium required for MOLM-13 cells is 1640 (ATCC, Product number: 30-2001) basal medium containing 20% fetal bovine serum. MOLM-13 cells were seeded in a 96-well plate at a density of 7,500 cells/well, and different concentrations of the compounds of the present invention were prepared to treat the cells at the same time. The cells were incubated in a 37° C., 5% CO2 cell culture incubator for 4 days. Cell viability was detected using the CCK-8 kit (Beyotime, Product number: C0040) according to the manufacturer's instructions. According to the inhibition rate, GraphPad Prism software was used to calculate the IC50 value of each compound for 4 days, and the results are shown in Table 9-10.

[1] = Table 6, positive control Alisertib
[2] = Table 11, positive control Alisertib
[3] = Table 12, positive control dBET6
[4] = Table 7, positive control Palbociclib

| Compound | IC50 (MV-4-11 cells; [1]) [µM] | IC50 (K562 cells; [2]) [µM] | IC50 (MOLM-13 cells; Table 10) [µM] | IC50 (MV-4-11 cells; [4]) [µM] | also measured |
| --- | --- | --- | --- | --- | --- |
| COc1cc(Nc2ncc3c(n2)-c2ccc(Cl)cc2C(c2c(F)cccc2OC)=NC3)ccc1C(=O)O [Alisertib, reference compound] | 0.026 | 3.77 |  |  |  |
| COc1cc(Nc2ncc3c(n2)-c2ccc(Cl)cc2C(c2c(F)cccc2OC)=NC3)ccc1C(=O)N1CCC2(CCc3cc4c(cc3O2)CN(C2CCC(=O)NC2=O)C4=O)CC1 (stereo not drawn) [PROTAC 1, 3-(1-(4-((9-chloro-7-(2-fluoro-6-methoxyphenyl)-5H-benzo[c]pyrimido[4,5-e]azepine-2-yl)amino)-2-methoxybenzoyl)-6′-oxo-3′,4′,6′,8′-tetrahydro-7′H-spiro[piperidine-4,2′-pyrano[2,3-f]isoindol]-7′-yl)piperidine-2,6-dione] | 0.12 | 0.15 |  |  |  |
| COc1cc(Nc2ncc3c(n2)-c2ccc(Cl)cc2C(c2c(F)cccc2OC)=NC3)ccc1C(=O)N1CC2(CCc3cc4c(cc3O2)CN(C2CCC(=O)NC2=O)C4=O)C1 (stereo not drawn) [PROTAC 3, 3-(1-(4-((9-chloro-7-(2-fluoro-6-methoxyphenyl)-5H-benzo[c]pyrimido[4,5-e]azepine-2-yl)amino)-2-methoxybenzoyl)-6′-oxo-3′,4′,6′,8′-tetrahydro-7′H-spiro[azetidine-3,2′-pyrano[2,3-f]isoindole]-7′-yl)piperidine-2,6-dione] | 0.077 | 0.41 |  |  |  |
| COc1cc(Nc2ncc3c(n2)-c2ccc(Cl)cc2C(c2c(F)cccc2OC)=NC3)ccc1C(=O)N1CC2(CCc3cc4c(cc3O2)C(=O)N(C2CCC(=O)NC2=O)C4)C1 (stereo not drawn) [PROTAC 4, 3-(1-(4-((9-chloro-7-(2-fluoro-6-methoxyphenyl)-5H-benzo[c]pyrimido[4,5-e]azepine-2-yl)amino)-2-methoxybenzoyl)-8′-oxo-3′,4′,6′,8′-tetrahydro-7′H-spiro[azetidine-3,2′-pyrano[2,3-f]isoindole]-7′-yl)piperidine-2,6-dione] | 0.025 | 0.22 |  |  |  |
| COc1cc(Nc2ncc3c(n2)-c2ccc(Cl)cc2C(c2c(F)cccc2OC)=NC3)ccc1C(=O)NCCOCCC(=O)N1CCC2(CC1)COc1cc3c(cc12)C(=O)N(C1CCC(=O)NC1=O)C3=O (stereo not drawn) [PROTAC 7, 4-((9-chloro-7-(2-fluoro-6-methoxyphenyl)-5H-benzo[c]pyrimido[4,5-e]azepine-2-yl)amino)-N-(2-(3-(6-(2,6-dioxopiperidin-3-yl)-5,7-dioxo-6,7-dihydro-2H,5H-spiro[furan [2,3-f]isoindole-3,4′-piperidin]-1′-yl)-3-oxopropoxy)ethyl)-2-methoxybenzamide] | 0.36 | 1.47 |  |  |  |
| Cc1nc(Nc2ncc(C(=O)Nc3c(C)cccc3Cl)s2)cc(N2CCN(CCOCCC(=O)N3CCC4(CCc5cc6c(cc5O4)C(=O)N(C4CCC(=O)NC4=O)C6=O)CC3)CC2)n1 (stereo not drawn) [PROTAC 9, N-(2-chloro-6-methylphenyl)-2-((6-(4-(2-(3-(7′-(2,6-dioxopiperidin-3-yl)-6′,8′-dioxo-4′,6′,7′,8′-tetrahydro-3′H-spiro[piperidine-4,2′-pyrano[2,3-f]isoindol]-1-yl)-3-oxopropoxy)ethyl)piperazin-1-yl)-2-methylpyrimidin-4-yl)amino)thiazole-5-carboxamide] |  |  |  |  | IC50 (MOLM-13 cells; Table 9): 1.11 µM; IC50 (K562 cells; [3]): 0.016 µM |
| Cc1nc(Nc2ncc(C(=O)Nc3c(C)cccc3Cl)s2)cc(N2CCN(CCOCCC(=O)N3CCC4(CC3)COc3cc5c(cc3C4)C(=O)N(C3CCC(=O)NC3=O)C5=O)CC2)n1 (stereo not drawn) [PROTAC 10, N-(2-chloro-6-methylphenyl)-2-((6-(4-(2-(3-(7′-(2,6-dioxopiperidin-3-yl)-6′,8′-dioxo-4′,6′,7′,8′-tetrahydro-2′H-spiro[piperidine-4,3′-pyrano[2,3-f]isoindole]-1-yl)-3-oxopropoxy)ethyl)piperazin-1-yl)-2-methylpyrimidin-4-yl)amino)thiazole-5-carboxamide] |  |  |  |  | IC50 (MOLM-13 cells; Table 9): 1.05 µM; IC50 (K562 cells; [3]): 0.017 µM |
| CC(=O)c1c(C)c2cnc(Nc3ccc(N4CCN(CCOCCC(=O)N5CC6(CCc7cc8c(cc7O6)C(=O)N(C6CCC(=O)NC6=O)C8=O)C5)CC4)cn3)nc2n(C2CCCC2)c1=O (stereo not drawn) [PROTAC 39, 1-(3-(2-(4-(6-((6-acetyl-8-cyclopentyl-5-methyl-7-oxo-7,8-dihydropyridone[2,3-d]pyrimidin-2-yl)amino)pyridin-3-yl)piperazin-1-yl)ethoxy)propionyl)-7′-(2,6-dioxopiperidin-3-yl)-3′,4′-dihydro-6′H-spiro[azetidine-3,2′-pyrano[2,3-f]isoindole]-6′,8′(7′ H)-dione] |  |  | 12.4 | 12.7 |  |
| CC(=O)c1c(C)c2cnc(Nc3ccc(N4CCN(CCOCCC(=O)N5CCC6(CC5)COc5cc7c(cc5C6)C(=O)N(C5CCC(=O)NC5=O)C7=O)CC4)cn3)nc2n(C2CCCC2)c1=O (stereo not drawn) [PROTAC 40, 1-(3-(2-(4-(6-((6-acetyl-8-cyclopentyl-5-methyl-7-oxo-7,8-dihydropyridone[2,3-d]pyrimidin-2-yl)amino)pyridin-3-yl)piperazin-1-yl)ethoxy)propionyl)-7′-(2,6-dioxopiperidin-3-yl)-2′H-spiro[piperidine-4,3′-pyrano[2,3-f]isoindole]-6′,8′(4′H,7′H)-dione] |  |  | 4.87 |  |  |
| CC(=O)c1c(C)c2cnc(Nc3ccc(N4CCN(CCOCCC(=O)N5CCC6(CC5)COc5cc7c(cc56)C(=O)N(C5CCC(=O)NC5=O)C7=O)CC4)cn3)nc2n(C2CCCC2)c1=O (stereo not drawn) [PROTAC 41, 1′-(3-(2-(4-(6-((6-acetyl-8-cyclopentyl-5-methyl-7-oxo-7,8-dihydropyridone[2,3-d]pyrimidin-2-yl)amino)pyridin-3-yl)piperazin-1-yl)ethoxy)propionyl)-6-(2,6-dioxopiperidin-3-yl)-6-hydro-2H,5H-spiro[furo[2,3-f]isoindole-3,4′-piperidine]-5,7-dione] |  |  | 2.19 | 2.16 |  |
| CC(=O)c1c(C)c2cnc(Nc3ccc(N4CCN(CCOCCC(=O)N5CCC6(CCc7cc8c(cc7O6)C(=O)N(C6CCC(=O)NC6=O)C8)CC5)CC4)cn3)nc2n(C2CCCC2)c1=O (stereo not drawn) [PROTAC 42, 3-(1-(3-(2-(4-(6-((6-acetyl-8-cyclopentyl-5-methyl-7-oxo-7,8-dihydropyridone[2,3-d]pyrimidin-2-yl)amino)pyridin-3-yl)piperazin-1-yl)ethoxy)propionyl)-8′-oxo-3′,4′,6′,8′-tetrahydro-7′H-spiro[piperidine-4,2′-pyrano[2,3-f]isoindole]-7′-yl)piperidine-2,6-dione] |  |  | 0.83 | 0.94 |  |
| CC(=O)c1c(C)c2cnc(Nc3ccc(N4CCN(CCOCCC(=O)N5CCC6(CCc7cc8c(cc7O6)CN(C6CCC(=O)NC6=O)C8=O)CC5)CC4)cn3)nc2n(C2CCCC2)c1=O (stereo not drawn) [PROTAC 43, 3-(1-(3-(2-(4-(6-((6-acetyl-8-cyclopentyl-5-methyl-7-oxo-7,8-dihydropyridone[2,3-d]pyrimidin-2-yl)amino)pyridin-3-yl)piperazin-1-yl)ethoxy)propionyl)-6′-oxo-6′,8′-dihydro-3′H,7′H-spiro[piperidine-4,2′-[1,4]dioxino[2,3-f]isoindole]-7′-yl)piperidine-2,6-dione] |  |  | 1.87 | 2.49 |  |
| CC(=O)c1c(C)c2cnc(Nc3ccc(N4CCN(CCOCCC(=O)N5CC6(CCc7cc8c(cc7O6)C(=O)N(C6CCC(=O)NC6=O)C8)C5)CC4)cn3)nc2n(C2CCCC2)c1=O (stereo not drawn) [PROTAC 44, 3-(1-(3-(2-(4-(6-((6-acetyl-8-cyclopentyl-5-methyl-7-oxo-7,8-dihydropyridone[2,3-d]pyrimidin-2-yl)amino)pyridin-3-yl)piperazin-1-yl)ethoxy)propionyl)-8′-oxo-3′,4′,6′,8′-tetrahydro-7′H-spiro[azetidine-3,2′-pyrano[2,3-f]isoindole]-7′-yl)piperidine-2,6-dione] |  |  | 1.31 | 3.31 |  |
| CC(=O)c1c(C)c2cnc(Nc3ccc(N4CCN(CCOCCC(=O)N5CC6(CCc7cc8c(cc7O6)CN(C6CCC(=O)NC6=O)C8=O)C5)CC4)cn3)nc2n(C2CCCC2)c1=O (stereo not drawn) [PROTAC 45, 3-(1-(3-(2-(4-(6-((6-acetyl-8-cyclopentyl-5-methyl-7-oxo-7,8-dihydropyridone[2,3-d]pyrimidin-2-yl)amino)pyridin-3-yl)piperazin-1-yl)ethoxy)propionyl)-6′-oxo-3′,4′,6′,8′-tetrahydro-7′H-spiro[azetidine-3,2′-pyrano[2,3-f]isoindole]-7′-yl)piperidine-2,6-dione] |  |  | 4.34 | 4.25 |  |

— patent US20250129088A1, “CEREBLON E3 UBIQUITIN LIGASE INHIBITOR” (Gan & Lee Pharmaceuticals Co., Ltd., priority 2022, published 2025)
